In brackets after ≈: the same amount, converted by molar mass.
Tests used:
Type in all cases: cell-based
[1] = tested on: S. pyogenes; test: Broth dilution MIC determination (CLSI) against S. pyogenes strains
Summary of the method: (§1)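 Macrolide MICs come from CLSI-standard broth dilution testing of distinct strains, several multidrug-resistant, selected with attention to macrolide resistance mechanisms; two reference macrolides, azithromycin and solithromycin, were included.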

[2] = tested on: A. baumannii; test: Broth dilution MIC determination (CLSI) against A. baumannii strains
Summary of the method: as §1

[3] = tested on: S. pneumoniae; test: Broth dilution MIC determination (CLSI) against S. pneumoniae strains
Summary of the method: as §1

[4] = tested on: E. faecalis; test: Broth dilution MIC determination (CLSI) against E. faecalis strains
Summary of the method: as §1

[5] = tested on: H. influenzae; test: Broth dilution MIC determination (CLSI) against H. influenzae strains
Summary of the method: as §1

[6] = tested on: K. pneumoniae; test: Broth dilution MIC determination (CLSI) against K. pneumoniae strains
Summary of the method: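 Azithromycin and solithromycin served as controls; MICs were obtained by standard CLSI broth dilution on a strain panel including multidrug-resistant and macrolide-resistant isolates.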

[7] = tested on: S. aureus; test: Broth dilution MIC determination (CLSI) against S. aureus strains
Summary of the method: as §1

[8] = tested on: E. coli; test: Broth dilution MIC determination (CLSI) against E. coli strains
Summary of the method: as §1

[9] = tested on: P. aeruginosa; test: Broth dilution MIC determination (CLSI) against P. aeruginosa strains
Summary of the method: as §1

SMILES | MIC S. pyogenes ATCC19615 [1] | MIC S. pyogenes macrolide-resistant [1] | MIC A. baumannii ATCC19606 [2] | MIC A. baumannii IMP-4 [2] | MIC A. baumannii chromosomal class C [2] | MIC A. baumannii imipenem-resistant [2] | MIC S. pneumoniae ATCC49619 [3] | MIC S. pneumoniae erm B + mef A genotype [3] | MIC S. pneumoniae erm B + tet(M, O) genotype [3] | MIC E. faecalis ATCC29212 [4] | MIC E. faecalis Vancomycin-resistant [4] | MIC H. influenzae ATCC49247 [5] | MIC H. influenzae erythro > 4, azithro 1 [5] | MIC K. pneumoniae ATCC10031 [6] | MIC K. pneumoniae KPC-2 [6] | MIC K. pneumoniae SHV-12 [6] | MIC K. pneumoniae TEM-10 [6] | MIC S. aureus ATCC29213 [7] | MIC S. aureus MRSA: USA100 [7] | MIC S. aureus MRSA: USA300 [7] | further results
CC[C@H]1OC(=O)[C@H](C)C(=O)[C@H](C)[C@@H](O[C@@H]2OC(Cn3cc(-c4ccccn4)nn3)CC(N(C)C)C2O)[C@](C)(OC)C[C@@H](C)CN[C@H](C)[C@H]2N(CCCCn3cc(-c4cccc(N)c4)nn3)C(=O)O[C@]12C (some centres unmarked) [FSM-22366] | <0.03125 µg/mL | 1 µg/mL (≈ 1.03 µM) | >32 µg/mL | >32 µg/mL | >32 µg/mL | 32 µg/mL (≈ 32.9 µM) | <0.03125 µg/mL | >32 µg/mL | <0.03125 µg/mL | 2 µg/mL (≈ 2.06 µM) | >32 µg/mL | 4 µg/mL (≈ 4.11 µM) | 4 µg/mL (≈ 4.11 µM) | 16 µg/mL (≈ 16.5 µM) | >32 µg/mL | >32 µg/mL | 32 µg/mL (≈ 32.9 µM) | 32 µg/mL (≈ 32.9 µM) | >32 µg/mL | >32 µg/mL | MIC S. aureus USA600, GISA [7]: >32 µg/mL; MIC S. aureus erm A genotype [7]: >32 µg/mL; MIC E. coli ATCC25922 [8]: >32 µg/mL; MIC E. coli CTX-M-14 [8]: >32 µg/mL; MIC E. coli NDM-1 [8]: >32 µg/mL; MIC E. coli TEM-1 [8]: 16 µg/mL (≈ 16.5 µM); MIC P. aeruginosa ATCC27853 [9]: >32 µg/mL; MIC P. aeruginosa HPA101-1477 [9]: >32 µg/mL
CCC1OC(=O)C(C)C(=O)C(C)C(OC2OC(Cn3cc(-c4cccc(N)n4)nn3)CC(N(C)C)C2O)C(C)(OC)CC(C)CNC(C)C2N(CCCCn3cc(-c4cccc(N)c4)nn3)C(=O)OC12C (centres unmarked) [FSM-22372] | <0.03125 µg/mL | 8 µg/mL (≈ 8.1 µM) | >32 µg/mL | >32 µg/mL | >32 µg/mL | >32 µg/mL | <0.03125 µg/mL | >32 µg/mL | <0.03125 µg/mL | 16 µg/mL (≈ 16.2 µM) | >32 µg/mL | 16 µg/mL (≈ 16.2 µM) | 16 µg/mL (≈ 16.2 µM) | >32 µg/mL | >32 µg/mL | >32 µg/mL | >32 µg/mL | >32 µg/mL | >32 µg/mL | >32 µg/mL | MIC S. aureus USA600, GISA [7]: >32 µg/mL; MIC S. aureus erm A genotype [7]: >32 µg/mL; MIC E. coli ATCC25922 [8]: >32 µg/mL; MIC E. coli CTX-M-14 [8]: >32 µg/mL; MIC E. coli NDM-1 [8]: >32 µg/mL; MIC E. coli TEM-1 [8]: >32 µg/mL; MIC P. aeruginosa ATCC27853 [9]: >32 µg/mL; MIC P. aeruginosa HPA101-1477 [9]: >32 µg/mL
